From patent publication US20110015225A1, “Heterocyclic compound” (Takeda Pharmaceutical Company Limited, priority 2008, published 2011) come the findings set out here.

For this test, the target named is MCH receptor (SLC-1) (UniProt Q99705). The experiment in a line: MCH receptor antagonistic activity using GTPγS binding assay. The class given is biochemical, human. The settings on record: [35S]-GTPγS binding, membrane fractions of SLC-1 expression CHO cells, 3×10^−10 M MCH, 25° C. 1 hr; read-out: Inhibitory Activity (IC50 value: nM). On the procedure: Using human SLC-1 expression CHO cell clone 57 and rat SLC-1 expression CHO cell clone 44 described in WO01/82925, membrane fractions of SLC-1 expression CHO cells were prepared by the following method. In phosphate buffered saline (pH 7.4) supplemented with 5 mM EDTA (ethylenediaminetetraacetic acid) were suspended human and rat SLC-1 expression CHO cells (1×10^8) and centrifuged. Homogenate buffer (10 ml, 10 mM […], 5 mM EDTA, pH 7.5) was added to the pellets of the cells and, using Polytron Homogenizer, the mixture was homogenated. The supernatant obtained after centrifugation at 400×g for 15 min was further centrifuged at 100,000×g for 1 hr to give precipitate of the membrane fraction. The precipitate was suspended in 2 ml of an assay buffer [50 mM Tris-HCl (pH 7.5), 1 mM EDTA, 0.1% BSA (bovine serum albumin), 10 mM MgCl2, 100 mM NaCl, 1 μM GDP (guanosine 5′-diphosphate), 0.25 mM PMSF (phenylmethylsulfonyl fluoride), […]] and centrifuged at 100,000×g for 1 hr. The membrane fraction recovered as precipitate was suspended again in 20 ml of an assay buffer, and after dispensing, preserved at −80° C. and used upon thawing each time when in use.
The MCH receptor antagonistic activity of the test compound was determined as follows. The membrane fractions of SLC-1 expression CHO cells (171 μl) diluted with an assay buffer was dispensed to a polypropylene 96 well plate and 3×10^−10 M MCH (2 μl) diluted with DMSO solution, test compound solution (2 μl) diluted to various concentrations and [^35S]-Guanosine 5′-(γ-thio)triphosphate (25 μl, Daiichi Pure Chemicals Co., Ltd.) were respectively added (cellular membrane final concentration: 20 μg/ml, [^35S]-Guanosine 5′-(γ-thio)triphosphate final concentration: 0.33 nM). The reaction mixture was reacted at 25° C. for 1 hr with stirring, suction filtered with a glass filter (GF-C) and washed 3 times with a wash solution (300 μl, 50 mM Tris-HCl buffer, pH 7.5). Liquid scintillator ([…]) was added to the glass filter and the residual radioactivity was determined by a liquid scintillation counter.
Binding inhibition (%)=(radioactivity upon addition of test compound and MCH−radioactivity upon addition of DMSO solution)/(radioactivity upon addition of MCH−radioactivity upon addition of DMSO solution)×100
From the binding inhibition (%), IC50 of the test compound was calculated.
(In general: GTPγS resists hydrolysis and so accumulates on activated G proteins.)
As a reminder, the IC50 is the midpoint of a concentration-inhibition curve. For the molecule `Cc1c(NC(=O)c2ccc(OCC3CC3)cc2)ccc2cc(CNCCCS(C)(=O)=O)cnc12` [Ex. 2, 4-(cyclopropylmethoxy)-N-[8-methyl-3-({[3-(methylsulfonyl)propyl]amino}methyl)quinolin-7-yl]benzamide], the 50% inhibitory concentration (IC50) came to 2.3 nM. The figure for `Cc1c(NC(=O)c2ccc(OCC3CC3)cc2)ccc2cc(C(C)NCCCS(C)(=O)=O)cnc12` (stereo not shown) [Ex. 3, 4-(cyclopropylmethoxy)-N-[8-methyl-3-(1-{[3-(methylsulfonyl)propyl]amino}ethyl)quinolin-7-yl]benzamide] is 2.2 nM; for `Cc1c(NC(=O)c2ccc(OCC3CC3)cc2)ccc2cc(CNCC(C)(C)CS(C)(=O)=O)cnc12` [Ex. 4, 4-(cyclopropylmethoxy)-N-[3-({[2,2-dimethyl-3-(methylsulfonyl)propyl]amino}methyl)-8-methylquinolin-7-yl]benzamide] it is 2.8 nM; for `Cc1c(NC(=O)c2ccc(OCC3CC3)cc2)ccc2cc(CNCCNS(C)(=O)=O)cnc12` [Ex. 6, 4-(cyclopropylmethoxy)-N-{8-methyl-3-[({2-[(methylsulfonyl)amino]ethyl}amino)methyl]quinolin-7-yl}benzamide] it is 4 nM.

For the molecule `Cc1c(NC(=O)c2ccc(OCC3CC3)cc2)ccc2cc(C(C)NCCNS(C)(=O)=O)cnc12` (stereo not shown) [Ex. 7, 4-(cyclopropylmethoxy)-N-{8-methyl-3-[1-({2-[(methylsulfonyl)amino]ethyl}amino)ethyl]quinolin-7-yl}benzamide], the 50% inhibitory concentration (IC50) was determined as 3.7 nM. For `Cc1c(NC(=O)c2ccc(OCC3CC3)cc2)ccc2cc(CNC3CCN(S(C)(=O)=O)CC3)cnc12` [Ex. 8, 4-(cyclopropylmethoxy)-N-[8-methyl-3-({[1-(methylsulfonyl)piperidin-4-yl]amino}methyl)quinolin-7-yl]benzamide], the 50% inhibitory concentration (IC50) is 3.9 nM. As to `Cc1c(NC(=O)c2ccc(OCC3CC3)cc2)ccc2cc(CNCCCNS(C)(=O)=O)cnc12` [Ex. 13, 4-(cyclopropylmethoxy)-N-{8-methyl-3-[({3-[(methylsulfonyl)amino]propyl}amino)methyl]quinolin-7-yl}benzamide], the half-maximal inhibitory concentration (IC50) was 2.8 nM.

Regarding `Cc1c(NC(=O)c2ccc(OCC3CC3)cc2)ccc2cc(CNCC3CCN(S(C)(=O)=O)CC3)cnc12` [Ex. 14, 4-(cyclopropylmethoxy)-N-{8-methyl-3-[({[1-(methylsulfonyl)piperidin-4-yl]methyl}amino)methyl]quinolin-7-yl}benzamide], the IC50 came to 3 nM. Take `Cc1c(NC(=O)c2ccc(OCC3CC3)cc2)ccc2cc(CNCC3(O)CCS(=O)(=O)CC3)cnc12` [Ex. 15, 4-(cyclopropylmethoxy)-N-[3-({[(4-hydroxy-1,1-dioxidotetrahydro-2H-thiopyran-4-yl)methyl]amino}methyl)-8-methylquinolin-7-yl]benzamide]: the IC50 came out at 5.6 nM. On to `Cc1c(NC(=O)c2ccc(OCC3CC3)cc2)ccc2cc(CNCC3CCS(=O)(=O)CC3)cnc12` [Ex. 16, 4-(cyclopropylmethoxy)-N-[3-({[(1,1-dioxidotetrahydro-2H-thiopyran-4-yl)methyl]amino}methyl)-8-methylquinolin-7-yl]benzamide], for which the IC50 was 1.8 nM.

For `Cc1c(NC(=O)c2ccc(OCCC3CC3)cc2)ccc2cc(CNCCCS(C)(=O)=O)cnc12` [Ex. 18, 4-(2-cyclopropylethoxy)-N-[8-methyl-3-({[3-(methylsulfonyl)propyl]amino}methyl)quinolin-7-yl]benzamide], the IC50 came to 1.1 nM. The figure for `Cc1c(NC(=O)c2ccc(OCCC3CC3)cc2)ccc2cc(CNC3CCS(=O)(=O)CC3)cnc12` [Ex. 20, 4-(2-cyclopropylethoxy)-N-(3-{[(1,1-dioxidotetrahydro-2H-thiopyran-4-yl)amino]methyl}-8-methylquinolin-7-yl)benzamide] is 1.4 nM; for `Cc1c(NC(=O)c2ccc(OCCC3CC3)cc2)ccc2cc(CNC3CC[S+]([O-])CC3)cnc12` (stereo not drawn) [Ex. 21, 4-(2-cyclopropylethoxy)-N-(8-methyl-3-{[(trans-1-oxidotetrahydro-2H-thiopyran-4-yl)amino]methyl}quinolin-7-yl)benzamide] it is 2.7 nM.
